{
  "source": "patent US10226445B2",
  "about": "“Pharmaceutical preparations” (Symrise AG, priority 2013, dated 2019)",
  "tested_on": "HGT-1 cells",
  "experiment": "Intracellular pH / proton secretion of HGT-1 cell cultures (SNARF-1-AM dye)",
  "type": "cell-based, human",
  "settings": "for proton secretion in the HGT-1 cells (in words): substances of group (b), Tables 1A and 1B; for activation at 30 µM: 0.03 mM substance of group (a) alone; for activation at 300 µM: 0.3 mM substance of group (a) alone; for stimulation of proton secretion by 3 mM caffeine or 0.3 mM theobromine (in words): additional administration at a concentration of 0.3 mM; for induced gastric acid secretion (in words): preparations with caffeine and/or theobromine as component (b)",
  "protocol": "Human parietal cells, also known as human gastric tumor cell line (HGT-1), are used as cell model. These were provided by Dr. C. Laboisse (Laboratory of Pathological Anatomy, Nantes, France). The cells were cultured under standard conditions at 37° C., 5% CO2 in DMEM (Dulbecco's Modified Eagle's Medium) with 4 g/l glucose, 10% FBS, 2% L-glutamine and 1% penicillin/streptomycin. For the measurement of the intracellular proton concentration, the cells are treated with trypsin/EDTA, the viability determined by means of trypan blue staining and 100 000 cells/well seeded in black 96-well plates.\nTo measure the intracellular pH, the dye 1,5-carboxyseminaphthorhodafluoro acetoxymethyl ester (SNARF-1-AM) is used. The cells in the 96-well plates are washed once with Krebs-Hepes buffer (KRHP) and incubated at 37° C. and 5% CO2 for 30 min with the dye dissolved in KRHP at a concentration of 3 μM. The cells are then washed twice with KRHP and substances of group (b), for example 3 mM caffeine or 0.3 mM theobromine, alone or in combination with substances of group (a), for example, homoeriodictyol (HED) or eriodictyol or matairesinol, lariciresinol or enterolactone, are applied in volumes of 100 μl at various concentrations in phenol red-free DMEM; as additional control experiments, the abovementioned substances of group (a) are tested alone. Homoeriodictyol is dissolved in double-distilled water while eriodictyol, matairesinol, lariciresinol or enterolactone are dissolved in ethanol (EtOH). The final concentration of solvent which is added to the cells is at most 1%. The fluorescent dye is excited at a wavelength of 488 nm and the emission measured at 580 nm and 640 nm. The ratio of the fluorescence values at 580 nm to 640 nm is compared to a calibration curve from which the pH can be determined. For the calibration curve, the cells are treated with a potassium phosphate buffer of different pH values from pH 7.2-8.2 and 2 μM nigericin. Nigericin equilibrates the intracellular and extracellular pH such that the intracellular pH may be defined. The intracellular H^+ concentration is determined from the intracellular pH. The intracellular proton index (IPX) is calculated by log 2 transformation of the ratio of treated cells and untreated cells (control). […] The number of replicates specified refers to the technical replicates (tr) or the number or total replicates (n), which results from the number of technical replicates multiplied by the number of biological replicates.",
  "key": {"[1]": {"settings": "0.03 mM substance of group (a) in combination with 0.3 mM theobromine, 10 minutes"}, "[2]": {"settings": "0.03 mM substance of group (a) in combination with 3 mM caffeine, 10 minutes"}, "[3]": {"settings": "0.3 mM substance of group (a) in combination with 0.3 mM theobromine, 10 minutes"}, "[4]": {"settings": "0.3 mM substance of group (a) in combination with 3 mM caffeine, 10 minutes"}, "[5]": {"settings": "Homo sapiens, HGT-1, 10 min, 10 minutes, read-out: T/C [%], percentage increase of the proton secretion compared to untreated controls"}},
  "data": [
    {"smiles": "NCCc1c[nH]cn1", "note": "[Histamine, reference compound]", "values": [
      {"measurement": "activation at 1000 µM", "setting": "Homo sapiens, HGT-1, 10 min, 1 mM substance alone, 10 minutes stimulation, read-out: T/C [%], percentage increase of the proton secretion compared to untreated controls", "value": 27.4, "unit": "%"}
    ]},
    {"smiles": "Cn1cnc2c1c(=O)[nH]c(=O)n2C", "note": "[Theobromine, theobromine, reference compound]", "values": [
      {"measurement": "T/C [%], percentage increase of the proton secretion compared to untreated controls", "setting": "0.3 mM substance of group (b) + 1% EtOH, 10 minutes stimulation", "value": 32.11, "unit": "%"},
      {"measurement": "proton secretion in the HGT-1 cells (in words)", "value": "stimulated"}
    ]},
    {"smiles": "COc1cc(C[C@H]2CO[C@H](c3ccc(O)c(OC)c3)[C@H]2CO)ccc1O", "note": "[Lariciresinol, lariciresinol]", "values": [
      {"measurement": "T/C [%], percentage increase of the proton secretion compared to untreated controls", "setting": "[1]", "value": 31.73, "unit": "%"},
      {"measurement": "T/C [%], percentage increase of the proton secretion compared to untreated controls", "setting": "[2]", "value": 46.40, "unit": "%"},
      {"measurement": "T/C [%], percentage increase of the proton secretion compared to untreated controls", "setting": "[3]", "value": 17.55, "unit": "%"},
      {"measurement": "T/C [%], percentage increase of the proton secretion compared to untreated controls", "setting": "[4]", "value": 21.57, "unit": "%"},
      {"measurement": "activation at 30 µM", "setting": "[5]", "value": 6.4, "unit": "%"},
      {"measurement": "activation at 300 µM", "setting": "[5]", "value": -2.04, "unit": "%"},
      {"measurement": "stimulation of proton secretion by 3 mM caffeine or 0.3 mM theobromine (in words)", "value": "reduced or completely inhibited"},
      {"measurement": "induced gastric acid secretion (in words)", "value": "highest reduction or complete inhibition"}
    ]},
    {"smiles": "O=C1OC[C@@H](Cc2cccc(O)c2)[C@@H]1Cc1cccc(O)c1", "note": "[Enterolactone, enterolactone]", "values": [
      {"measurement": "T/C [%], percentage increase of the proton secretion compared to untreated controls", "setting": "[2]", "value": 23.41, "unit": "%"},
      {"measurement": "T/C [%], percentage increase of the proton secretion compared to untreated controls", "setting": "[4]", "value": "−18.25", "unit": "%"},
      {"measurement": "activation at 30 µM", "setting": "[5]", "value": -2.76, "unit": "%"},
      {"measurement": "activation at 300 µM", "setting": "[5]", "value": -27.3, "unit": "%"},
      {"measurement": "stimulation of proton secretion by 3 mM caffeine or 0.3 mM theobromine (in words)", "value": "reduced or completely inhibited"},
      {"measurement": "induced gastric acid secretion (in words)", "value": "highest reduction or complete inhibition"}
    ]},
    {"smiles": "Cn1c(=O)c2c(ncn2C)n(C)c1=O", "note": "[Caffeine, caffeine, reference compound]", "values": [
      {"measurement": "T/C [%], percentage increase of the proton secretion compared to untreated controls", "setting": "3 mM substance + 1% EtOH, 10 minutes stimulation", "value": 44.92, "unit": "%"},
      {"measurement": "proton secretion in the HGT-1 cells (in words)", "value": "stimulated"}
    ]},
    {"smiles": "COc1cc(C2CC(=O)c3c(O)cc(O)cc3O2)ccc1O", "note": "(stereo not drawn) [HED, homoeriodictyol]", "values": [
      {"measurement": "T/C [%], percentage increase of the proton secretion compared to untreated controls", "setting": "0.003 mM substance of group (a) in combination with 0.3 mM theobromine, 10 minutes", "value": 21.56, "unit": "%"},
      {"measurement": "T/C [%], percentage increase of the proton secretion compared to untreated controls", "setting": "[1]", "value": 13.79, "unit": "%"},
      {"measurement": "T/C [%], percentage increase of the proton secretion compared to untreated controls", "setting": "[2]", "value": 37.99, "unit": "%"},
      {"measurement": "T/C [%], percentage increase of the proton secretion compared to untreated controls", "setting": "[3]", "value": "−16.92", "unit": "%"},
      {"measurement": "T/C [%], percentage increase of the proton secretion compared to untreated controls", "setting": "[4]", "value": 20.18, "unit": "%"},
      {"measurement": "activation at 3 µM", "setting": "Homo sapiens, HGT-1, 10 min, 0.003 mM substance of group (a) alone, 10 minutes, read-out: T/C [%], percentage increase of the proton secretion compared to untreated controls", "value": -8.04, "unit": "%"},
      {"measurement": "activation at 30 µM", "setting": "[5]", "value": 12.7, "unit": "%"},
      {"measurement": "activation at 300 µM", "setting": "[5]", "value": -3.66, "unit": "%"},
      {"measurement": "stimulation of proton secretion by 3 mM caffeine or 0.3 mM theobromine (in words)", "value": "reduced or completely inhibited"},
      {"measurement": "induced gastric acid secretion (in words)", "value": "highest reduction or complete inhibition"}
    ]},
    {"smiles": "COc1cc(C[C@H]2COC(=O)[C@@H]2Cc2ccc(O)c(OC)c2)ccc1O", "note": "[Matairesinol, matairesinol]", "values": [
      {"measurement": "T/C [%], percentage increase of the proton secretion compared to untreated controls", "setting": "[1]", "value": 23.41, "unit": "%"},
      {"measurement": "T/C [%], percentage increase of the proton secretion compared to untreated controls", "setting": "[2]", "value": 14.39, "unit": "%"},
      {"measurement": "T/C [%], percentage increase of the proton secretion compared to untreated controls", "setting": "[3]", "value": "−18.25", "unit": "%"},
      {"measurement": "T/C [%], percentage increase of the proton secretion compared to untreated controls", "setting": "[4]", "value": "−20.43", "unit": "%"},
      {"measurement": "activation at 30 µM", "setting": "[5]", "value": -9.4, "unit": "%"},
      {"measurement": "activation at 300 µM", "setting": "[5]", "value": -31.7, "unit": "%"},
      {"measurement": "stimulation of proton secretion by 3 mM caffeine or 0.3 mM theobromine (in words)", "value": "reduced or completely inhibited"},
      {"measurement": "induced gastric acid secretion (in words)", "value": "highest reduction or complete inhibition"}
    ]},
    {"smiles": "O=C1CC(c2ccc(O)c(O)c2)Oc2cc(O)cc(O)c21", "note": "(stereo not drawn) [Eriodictyol, eriodictyol]", "values": [
      {"measurement": "T/C [%], percentage increase of the proton secretion compared to untreated controls", "setting": "[1]", "value": 23.95, "unit": "%"},
      {"measurement": "T/C [%], percentage increase of the proton secretion compared to untreated controls", "setting": "[2]", "value": 29.69, "unit": "%"},
      {"measurement": "T/C [%], percentage increase of the proton secretion compared to untreated controls", "setting": "[3]", "value": "−42.86", "unit": "%"},
      {"measurement": "T/C [%], percentage increase of the proton secretion compared to untreated controls", "setting": "[4]", "value": "−33.96", "unit": "%"},
      {"measurement": "activation at 30 µM", "setting": "[5]", "value": -10.8, "unit": "%"},
      {"measurement": "activation at 300 µM", "setting": "[5]", "value": -11.7, "unit": "%"},
      {"measurement": "stimulation of proton secretion by 3 mM caffeine or 0.3 mM theobromine (in words)", "value": "reduced or completely inhibited"},
      {"measurement": "induced gastric acid secretion (in words)", "value": "highest reduction or complete inhibition"}
    ]}
  ]
}
